Data set [1] is described as follows: Adverse events, DDI evaluation period. The format is in vivo, human (patients with solid tumors).
The target in a further data set is CYP2C9 (Homo sapiens, UniProt P11712). Put plainly: clinical. As to conditions: plasma, oral, 25 mg.
The target in a further data set is T1, CYP2C8 (Homo sapiens, UniProt P10632).
T1 sequence (P10632 1-490): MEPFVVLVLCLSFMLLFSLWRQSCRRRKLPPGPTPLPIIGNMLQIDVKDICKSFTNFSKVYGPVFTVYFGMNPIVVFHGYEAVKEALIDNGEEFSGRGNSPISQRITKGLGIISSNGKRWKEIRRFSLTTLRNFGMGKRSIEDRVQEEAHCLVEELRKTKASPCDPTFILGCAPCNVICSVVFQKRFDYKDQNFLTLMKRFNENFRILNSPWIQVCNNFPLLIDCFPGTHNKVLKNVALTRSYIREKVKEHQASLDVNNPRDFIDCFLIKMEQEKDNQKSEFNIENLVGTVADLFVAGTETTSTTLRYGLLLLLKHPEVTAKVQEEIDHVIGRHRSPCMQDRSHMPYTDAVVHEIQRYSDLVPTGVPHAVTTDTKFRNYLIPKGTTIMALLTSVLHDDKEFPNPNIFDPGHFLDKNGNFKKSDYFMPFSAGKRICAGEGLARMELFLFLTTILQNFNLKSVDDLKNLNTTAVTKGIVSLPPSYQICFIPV
The experiment in a line: Clinical DDI: pioglitazone plasma PK with and without TAS-115. To be noted: oral, 15 mg.

Another data set has as its system CYP3A4. As to conditions: for AUCinf, Geometric LSM / AUClast, Geometric LSM / Cmax, Geometric LSM: 1’-hydroxymidazolam.
The mark [2] stands for this setting: After Administration of TAS-115, DDI period (N=18).
[3] abbreviates: Before Administration of TAS-115 (N=18).
Setting [4] is: Entire DDI Evaluation Period (N=18).
[5] abbreviates: midazolam 2.5 mg alone (Day −2).
[6] abbreviates: midazolam 2.5 mg with TAS-115 250 mg once daily (Day 5).

These results are taken from paper PMC12823633 (Cancer Chemotherapy and Pharmacology, 2026).

Like-named read-outs stand apart in the source and are kept apart here.

Chain of CYP2C9 (P11712 whole entry): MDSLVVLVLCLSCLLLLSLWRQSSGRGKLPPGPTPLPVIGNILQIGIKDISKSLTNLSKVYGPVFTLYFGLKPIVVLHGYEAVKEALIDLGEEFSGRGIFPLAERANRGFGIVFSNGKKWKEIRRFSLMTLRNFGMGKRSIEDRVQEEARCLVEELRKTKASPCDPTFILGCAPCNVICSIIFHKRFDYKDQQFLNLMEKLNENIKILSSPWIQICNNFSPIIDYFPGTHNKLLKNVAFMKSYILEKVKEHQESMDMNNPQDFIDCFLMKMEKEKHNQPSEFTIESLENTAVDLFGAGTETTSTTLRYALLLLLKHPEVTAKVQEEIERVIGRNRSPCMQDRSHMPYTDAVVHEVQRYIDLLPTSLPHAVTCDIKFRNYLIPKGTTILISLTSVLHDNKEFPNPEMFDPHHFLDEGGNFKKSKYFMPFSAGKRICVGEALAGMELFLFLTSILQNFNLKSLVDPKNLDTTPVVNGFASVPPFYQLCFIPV

As to `CCCCc1nc(Cl)c(CO)n1Cc1ccc(-c2ccccc2-c2nn[nH]n2)cc1` [Losartan, losartan, reference compound], in data set [1] (setting [2]), the “Any >=Grade 3 TRAEs Related to Losartan” value was 0 (0.0) N (%) and the “Any TRAEs Related to Losartan” value is 1 (5.6) N (%). For the same molecule, in data set [1] (setting [3]), the “Any >=Grade 3 TRAEs Related to Losartan” value was 0 (0.0) N (%) and the “Any TRAEs Related to Losartan” value is reported as 0 (0.0) N (%). Besides, the “TRAE (Grade 1 hypotension) related to losartan” value in data set [1] (DDI evaluation period, losartan administered after TAS-115) is on record as “one patient”. In addition, in data set [1] (setting [4]), the “Any >=Grade 3 TRAEs Related to Losartan” value was 0 (0.0) N (%) and the “Any TRAEs Related to Losartan” value is given as 1 (5.6) N (%). On CYP2C9, this molecule showed an AUC(0-inf) of 388 ng·h/mL, an exposure AUC(0-t) of 364 ng·h/mL and a Cmax of 158 ng/mL.
With `CCc1ccc(CCOc2ccc(CC3SC(=O)NC3=O)cc2)nc1` (centres unmarked) [Pioglitazone, pioglitazone, reference compound], in data set [1] (setting [2]), the “Any >=Grade 3 TRAEs Related to Pioglitazone” value is listed as 0 (0.0) N (%) and the “Any TRAEs Related to Pioglitazone” value was 0 (0.0) N (%). Also, in data set [1] (setting [3]), the “Any >=Grade 3 TRAEs Related to Pioglitazone” value is 0 (0.0) N (%) and the “Any TRAEs Related to Pioglitazone” value is given as 1 (5.6) N (%). The “TRAE (Grade 1 diarrhoea) related to pioglitazone” value in data set [1] (DDI evaluation period, pioglitazone administered before TAS-115) is listed as “one patient”. For the same molecule, in data set [1] (setting [4]), the “Any >=Grade 3 TRAEs Related to Pioglitazone” value is recorded as 0 (0.0) N (%) and the “Any TRAEs Related to Pioglitazone” value is 1 (5.6) N (%). For the same molecule, at CYP2C8, the AUC(0-inf) was found to be 7710 ng·h/mL, the AUC(0-t) worked out at 6340 ng·h/mL and the Cmax was 635 ng/mL.
As to `OCc1ncc2n1-c1ccc(Cl)cc1C(c1ccccc1F)=NC2` [1’-Hydroxymidazolam, 1’-hydroxymidazolam], in the data set on CYP3A4 (setting [5]), the “AUCinf, Geometric LSM” value came to 19.92 ng·h/mL; the “AUClast, Geometric LSM” value was 19.33 ng·h/mL; the “Cmax, Geometric LSM” value was determined as 8.195 ng/mL. Further, in the data set with CYP3A4 (setting [6]), the “AUCinf, Geometric LSM” value turned out to be 20.86 ng·h/mL; the “AUClast, Geometric LSM” value stood at 20.13 ng·h/mL; the “Cmax, Geometric LSM” value is 8.391 ng/mL.
`Cc1ncc2n1-c1ccc(Cl)cc1C(c1ccccc1F)=NC2` [Midazolam, midazolam, reference compound]: in data set [1] (setting [2]), the “Any >=Grade 3 TRAEs Related to Midazolam” value was 0 (0.0) N (%) and the “Any TRAEs Related to Midazolam” value is listed as 0 (0.0) N (%). Besides, in data set [1] (setting [3]), the “Any >=Grade 3 TRAEs Related to Midazolam” value was 0 (0.0) N (%) and the “Any TRAEs Related to Midazolam” value is 0 (0.0) N (%). In data set [1] (setting [4]), the “Any >=Grade 3 TRAEs Related to Midazolam” value is on record as 0 (0.0) N (%) and the “Any TRAEs Related to Midazolam” value is on record as 0 (0.0) N (%). In the data set with CYP3A4 (human, plasma, oral, 2.5 mg), this molecule registered an AUC(0-inf) of 56.8 ng·h/mL, an AUC(0-t) of 55.5 ng·h/mL and a Cmax of 21.9 ng/mL.
